Experimental data reported in patent US20090118225A1, “1-Methyl Nicotinamide and Derivatives for Treatment of Gastric Injury” (Cortria Corporation, priority 2007, published 2009).

Legend:
[1] = system: I/R-induced gastric lesions; experiment: Ischemia-reperfusion (I/R)-induced gastric lesion model; assay type: in vivo, Male Wistar rats
Method: (§1) Male Wistar rats, weighing 180-220 grams were fasted for 24 hours before subjecting to experimentation were employed in all studies. The animals were divided into groups for the following types of induced gastric lesions: ethanol-; aspirin (acetylsalicylic acid; ASA)-; stress-; and ischemia-reperfusion (I/R)-induced gastric lesions. In the first group, gastric lesions were produced by intragastric (i.g.) application of ethanol (75%), in the second group by i.g. application of acidified ASA (125 mg/kg), in the third group by animal exposure to 3.5 hours of water immersion (and restraint stress (WRS), in the fourth group by ischemia (by clamping celiac artery for 30 minutes followed by release of the clamp (reperfusion for 3 hours) (I/R).
(§2) The following experiments were designed to assess the therapeutic effect of 1-MNA on induced gastric lesions.
(§3) To assess gastric blood flow (GBF) laser Doppler flowmeter (Laserflo, model BPM 403A, Blood Perfusion Monitor, Vasamedics, St. Paul, Minn., USA) was used. The animals were anaesthetized with Vetbutal 50 mg/kg (Biowet, Pu^3awy, Poland), then the abdomen was opened and the stomach was exposed to assess the GBF. Blood flow was measured on anterior and posterior wall of stomach. The mean values of these measurements were calculated and expressed as percent change from value recorded in the intact mucosa.
(§4) To establish the number and area of gastric lesions, computerized planimetry (Morphomat, Carl Zeiss, Berlin, Germany) was used. Results are expressed as mm.

[2] = system: diabetes and stress-induced gastric damage; experiment: Combined diabetes and stress-induced gastric damage model; assay type: in vivo, rats
From the text: (§5) A venous blood sample was withdrawn from the vena cava into EDTA-containing vials in order to determine the plasma level of interleukin-1 beta (IL-1β) and tumor necrosis factor alpha (TNFα) by ELISA technique (BioSource International, Camarillo, Calif., USA).
The next set of experiments was designed to assess the therapeutic effects of 1-MNA in a combined diabetic and stress-induced gastric damage model.
Insulin-dependent diabetes exerts various influences on gastric functions, such as acid secretion and gastric emptying. It has observed that aggravation of gastric mucosal ulcerogenic responses occurs in diabetic rats. Furthermore, deleterious influence of diabetes on the healing of gastric mucosal lesions has been observed in diabetic rats.

[3] = system: ethanol-induced gastric lesions; experiment: Ethanol-induced gastric lesion model; assay type: in vivo, Male Wistar rats
Method: as §1, §2, §3, §4

acetic acid ulcer = experiment: Acetic acid ulcer area and GBF in rats with and without rofecoxib; assay type: in vivo
From the text: The following experiments were designed to assess the effects of 1-MNA on acetic acid ulcer area and GBF in rats administered with and without a selective COX-2 inhibitor (e.g., rofecoxib).

[4] = system: ASA-induced gastric lesions; experiment: Acidified ASA-induced gastric lesion model; assay type: in vivo, Male Wistar rats
Method: as §1, §2, §3, §4
For lipid peroxydation in investigated groups, the determination of the levels of malondialdehyde (MDA) and 4 hydroxynonenal (4-HNE) was carried out and their levels were used as indicators of lipid peroxidation. The procedure of MDA and 4-HNE determination was following: 600 mg of gastric mucosa was excised. Then […] 0.5 M BHT (butylated hydroxytoluene) was added in order to prevent sample oxidation. This sample was subsequently homogenized in 20 mM Tris for 15 sec. in pH 7.4. The homogenate was centrifuged (3,000 g at 4° C. for 10 minutes). Obtained clear supernatant was stored at −80° C. prior to testing. The colorimetric assay for lipid peroxidation (Bioxytech LPO-586, Oxis, Portland, USA) was used to determine the MDA and 4-HNE tissue concentration. This assay is based on the reaction of a chromogenic reagent N-methyl-2-phenylindole with MDA and 4-HNE at 45° C. This reaction yields a stable chromophore with maximal absorbance at 586 nm. This absorbance was measured by spectrophotometer Marcel s300, Warsaw, Poland. Results were expressed as nanomole per gram of tissue (nmol/g).
To determine activity of superoxide dismutase (SOD), a sample of gastric mucosa was taken, as described above. The calorimetric assay for assessment of SOD activity (Bioxytech, SOD-525, Oxis, Portland, USA) was used. This method is based on the SOD-mediated increase in the rate of autooxidation of tetrahydrobenzofluorene in aqueous alkaline solution to yield a chromophore with maximum absorbance at 525 nm. This absorbance was measured by spectrophotometer Marcel s300, Warsaw, Poland. Outcomes were expressed as units per gram of tissue (U/g).
The next set of experiments were designed to measure myeloperoxidase (MPO), malondialdehyde (MDA) and 4-hydroxynonenal (4-HNE), and superoxide dismutase (SOD) activities in rat stomach exposed to acidified ASA as indicators of the prognosis of gastric mucosa injury. To evaluate the inflammatory changes, myeloperoxidase (MPO) activity in the gastric mucosa was measured. MPO activity was measured by enzyme assay. MDA and 4-HNE in tissue are accepted as major products of lipid peroxidation and thus are considered as indicators of mucosa injury by reactive oxygen species (ROS). Organisms have several enzymatic systems that scavenge ROS and prevent their destructive action. The major antioxidative enzyme is superoxide dismutase (SOD).

gastric acid output = experiment: Gastric acid output in rats having chronic gastric fistula (GF); assay type: in vivo
Method: The following experiments were designed to compare the effects of pretreatment with vehicle and 1-MNA or NA on stress-induced gastric lesions and the accompanying changes in gastric blood flow (GBF) and gastric tissue activities of MDA and SOD and plasma pro-inflammatory cytokine IL-1β and TNF-α levels. These sets of experiments were based on the observation that 1-MNA was able to reduce the gastric output in rats having chronic gastric fistula (GF). Rats with chronic GF were administered with 1-MNA, NA, or a vehicle control.

[5] = system: WRS-induced gastric lesions; experiment: Water immersion and restraint stress (WRS)-induced gastric lesion model; assay type: in vivo, Male Wistar rats; details: for effect on the protection by 1-MNA with respect to gastric lesions / effect on the protective property of 1-MNA as measured by mean lesion number and plasma levels of IL-1β and TNFα: COX inhibitor pretreatment plus 1-MNA; for effect on gastroprotection and the accompanying rise in the GBF induced by 1-MNA: summary of inhibitor experiments; for lesion numbers after COX inhibitor pretreatment before 1-MNA and WRS: indomethacin 5 mg/kg i.p., SC-560 5 mg/kg i.g. or rofecoxib 10 mg/kg i.g., versus absence of inhibitor
Method: as §1, §2, §3, §4, §5

[6] = ischemia 30 minutes, reperfusion 3 hours, pretreatment
[7] = ethanol (75%) i.g., pretreatment
[8] = acidified ASA 125 mg/kg i.g., pretreatment
[9] = comparison of protective properties
[10] = WRS 3.5 hours, pretreatment 30 minutes prior
[11] = WRS, administration of 16,16-dimethyl PGE2

Molecule: C[n+]1cccc(C(N)=O)c1 [1-MNA, 1-methyl nicotinamide]
- gastric blood flow [1, 6]: increased gastric blood flow
- lesion number [1, 6]: decreased lesion number
- mean lesion number [2]: reduce mean lesion number
- plasma level of IL-1β [2]: decrease
- plasma level of TNFα [2]: decrease
- gastric blood flow [3, 7]: increased gastric blood flow
- lesion number [3, 7]: decreased lesion number
- increase of gastric blood flow compared with NA ([3]; ethanol model, 1-MNA versus NA): more effectively than NA
- reduction of lesion number compared with NA ([3]; ethanol model, 1-MNA versus NA): more effectively than NA
- mean lesion number in animals pretreated with either indomethacin, SC-560, or rofecoxib ([3]; ethanol model, presence of 1-MNA): significantly reduced
- GBF in the ulcer area (acetic acid ulcer; rats given rofecoxib): increase the GBF in the ulcer area
- ulcer area (acetic acid ulcer; rats given rofecoxib): reduce the ulcer area in rats given rofecoxib
- GBF in the ulcer area (acetic acid ulcer; without rofecoxib): increase the GBF in the ulcer area
- ulcer area (acetic acid ulcer; without rofecoxib): reduce the ulcer area
- increase of gastric blood flow compared with NA ([4]; 1-MNA versus NA): more effectively than NA
- reduction of lesion number compared with NA ([4]; 1-MNA versus NA): more effectively than NA
- levels of 4-HNE in gastric mucosa ([4]; ASA-induced lesions): decreasing
- levels of MDA in gastric mucosa ([4]; ASA-induced lesions): decreasing
- levels of MPO in gastric mucosa ([4]; ASA-induced lesions): lowering the levels of MPO
- levels of SOD in gastric mucosa ([4]; ASA-induced lesions): increasing the levels of SOD
- gastric blood flow [4, 8]: increased gastric blood flow
- lesion number [4, 8]: decreased lesion number
- increasing GBF, compared with ranitidine, NO-ASA and SIN-1 [4, 9]: equally effective
- increasing luminal NO, compared with ranitidine, NO-ASA and SIN-1 [4, 9]: equally effective
- reducing mean lesion number, compared with ranitidine, NO-ASA and SIN-1 [4, 9]: equally effective
- dose dependence of the ability to inhibit gastric output (gastric acid output): increased with increasing dosage
- suppression of gastric acid output compared with NA (gastric acid output; 1-MNA versus NA): more effectively than NA
- gastric acid output (gastric acid output; 1-MNA, NA or vehicle control): decrease the gastric acid output
- gastric blood flow [5, 10]: increased gastric blood flow
- lesion number [5, 10]: decreased lesion number
- plasma level of IL-1β ([5]; WRS model): decrease the plasma levels
- plasma level of TNFα ([5]; WRS model): decrease the plasma levels
- reduction of lesion number compared with NA ([5]; WRS, 1-MNA versus NA): more effectively than NA

Molecule: CCCCC(C)(C)[C@H](O)/C=C/[C@H]1[C@H](O)CC(=O)[C@@H]1C/C=C\CCCC(=O)O [16,16-dimethyl PGE2]
- gastric damage induced by either indomethacin, SC-560, or rofecoxib [5, 11]: successful in preventing the gastric damage
- mean lesion number [5, 11]: sufficient to decrease the mean lesion number

Molecule: N=C(NCCC[C@H](N)C(=O)O)N[N+](=O)[O-] [L-NNA, NG-nitro-L-arginine, reference compound]
- effect on the therapeutic effects of 1-MNA on gastric lesions ([1]; L-NNA 20 mg/kg i.p.): reverse the therapeutic effects of 1-MNA

Molecule: COc1ccc(-n2nc(C(F)(F)F)cc2-c2ccc(Cl)cc2)cc1 [SC-560]
- effect on the protection by 1-MNA with respect to gastric lesions ([5]; WRS): significantly inhibited the protection by 1-MNA
- effect on the protective property of 1-MNA as measured by mean lesion number and plasma levels of IL-1β and TNFα ([5]; WRS): significantly inhibited the protective property of 1-MNA
- effect on gastroprotection and the accompanying rise in the GBF induced by 1-MNA [5]: significantly attenuated

Molecule: COc1cc(CNC(=O)CCCC/C=C/C(C)C)ccc1O [capsaicin]
- effect of capsaicin denervation on the protection induced by 1-MNA with respect to gastric lesions ([5]; WRS, capsaicin 125 mg/kg s.c.): significantly inhibit the protection induced by 1-MNA
- effect on gastroprotection and the accompanying rise in the GBF induced by 1-MNA [5]: significantly attenuated

Molecule: Oc1cc2c(cc1O)CN(C(=S)NCCc1ccc(Cl)cc1)CCC2 [capsazepine]
- effect on the protective property of 1-MNA as measured by mean lesion number and gastric blood flow ([5]; WRS, capsazepine 5 mg/kg s.c.): reduced the protective property of 1-MNA
- effect on gastroprotection and the accompanying rise in the GBF induced by 1-MNA [5]: significantly attenuated

Molecule: COc1ccc2c(c1)c(CC(=O)O)c(C)n2C(=O)c1ccc(Cl)cc1 [indomethacin]
- effect on the protection by 1-MNA with respect to gastric lesions ([5]; WRS): significantly inhibited the protection by 1-MNA
- effect on the protective property of 1-MNA as measured by mean lesion number and plasma levels of IL-1β and TNFα ([5]; WRS): significantly inhibited the protective property of 1-MNA
- lesion numbers after COX inhibitor pretreatment before 1-MNA and WRS [5]: increase of lesion numbers
- effect on gastroprotection and the accompanying rise in the GBF induced by 1-MNA [5]: significantly attenuated

Molecule: CS(=O)(=O)c1ccc(C2=C(c3ccccc3)C(=O)OC2)cc1 [rofecoxib]
- number of lesions after COX inhibitor pretreatment in the absence of 1-MNA ([3]; indomethacin 5 mg/kg i.p., SC-560 5 mg/kg i.g. or rofecoxib 10 mg/kg i.g., versus no inhibitor): increased the number of lesions
- effect on the protection by 1-MNA with respect to gastric lesions ([5]; WRS): significantly inhibited the protection by 1-MNA
- effect on the protective property of 1-MNA as measured by mean lesion number and plasma levels of IL-1β and TNFα ([5]; WRS): significantly inhibited the protective property of 1-MNA
- lesion numbers after COX inhibitor pretreatment before 1-MNA and WRS [5]: increase of lesion numbers
- effect on gastroprotection and the accompanying rise in the GBF induced by 1-MNA [5]: significantly attenuated

Molecule: calcitonin gene related peptide [CGRP]
- effect on the deleterious effects of capsazepine ([5]; WRS, addition of CGRP): counter the deleterious effects of casazepine
- effect on the deleterious effects of capsaicin-induced denervation ([5]; WRS, addition of CGRP to 1-MNA in denervated rats): counteracted the deleterious effects of capsaicin-induced denervation
